Assay results reported in patent publication US20110281957A1, “ENHANCED BIOACTIVE FORMULATIONS OF RESVERATROL” (Lipoprotein Technologies, Inc., priority 2008, published 2011).
Where two headings read alike, the source gives them in different places.

What was measured:
[1] = Solubility in pH 7.4 Hank's Balanced Salt Solution, LC/MS/MS; type: physicochemical; conditions: pH 7.4 buffer, shaken 2 hours, stood overnight at room temperature
Description: The mixtures were shaken for 2 hours using a benchtop vortexer and left to stand overnight at room temperature. […] After vortexing and standing overnight, the resveratrol gel formulation mixture was centrifuged at 14,000 rpm for 10 minutes. The filtrate or supernatant was sampled twice, consecutively, and diluted 10, 100, and 10.000-fold in a mixture of 50:50 assay buffer:acetonitrile prior to analysis. Both mixtures were assayed by LC/MS/MS using electrospray ionization against the standards prepared in a mixture of 50:50 assay buffer:acetonitrile. Standard concentrations ranged from 1.0 μM down to 3.0 nM.

[2] = Visual clarity of the resveratrol/surfactant mixture on addition to water; type: physicochemical; conditions: polyoxyl 40 castor oil (macrogoglycerol hydroxystearate) as the surfactant
Description: Water soluble compositions of trans-resveratrol were formulated containing the non-ionic surfactant macrogolglycerol hydroxystearate (polyoxyl 40 castor oil). By heating and stirring this polyoxyl castor oil with a powdered synthetic 99% trans-resveratrol, a clear viscous solution was formed containing dissolved trans-resveratrol (hereinafter referred to as “resveratrol gel formulation”). The resveratrol gel formulation consisted of macrogolglycerol hydroxystearate 40 (50 ml) and powdered trans-resveratrol (3 grams), representing a concentration of 6% for the resveratrol in the surfactant.
The following formulation was prepared as described below: 500 mg of purified resveratrol 99% derived from polygonum cuspidatum (Japanese knotweed) was dissolved in 25 ml of warm macrogoglycerol hydroxystearate until a clear gel was formed. 250 mg of ascorbic acid was added to the clear gel, which was then slowly added to 100 ml of warm water.

[3] = system: breast cancer (MCF-7) cells; conditions: MCF-7 cells in vitro; cited from earlier work
[4] = system: ovarian cancer (A-2780) cells; conditions: A-2780 cells in vitro; cited from earlier work
[5] = cited from earlier work
[6] = humans, up to 4 g; cited from earlier work

## Oc1ccc(/C=C/c2cc(O)cc(O)c2)cc1 [Powdered Resveratrol, trans-3,5,4′-trihydroxystilbene]
[1]; Hank's Balanced Salt Solution buffer, pH 7.4, aqueous buffer, thermodynamic from solid, average of 2 replicates, read-out: Solubility AVG
  solubility: 0.5 µM
[1]; Hank's Balanced Salt Solution buffer, pH 7.4, aqueous buffer, thermodynamic from solid, replicate 1, read-out: Solubility Rep 1
  solubility: 0.4 µM
[1]; Hank's Balanced Salt Solution buffer, pH 7.4, aqueous buffer, thermodynamic from solid, replicate 2, read-out: Solubility Rep 2
  solubility: 0.61 µM
[1]; average of 2 replicates, read-out: Solubility AVG
  solubility: 0.505 µM

## Oc1ccc(C=Cc2cc(O)cc(O)c2)cc1 [Resveratrol, 3,5,4′-trihydroxystilbene]
[2]
  Maximum concentration in surfactant for a crystal-clear solution in water: ≤ 20%
[3]
  Inhibition of proliferation: inhibited the proliferation
[4]
  Inhibition of proliferation: inhibited the proliferation
[5]
  Solubility in water: insoluble in water

## O=c1c(O)c(-c2ccc(O)c(O)c2)oc2cc(O)cc(O)c12 [quercetin]
[6]
  Detection in plasma after oral administration: No quercetin could be found in plasma
